Values belong to the compound of their own block, whether it stands above or below them. Where no end group is shown, it is not given here.
What was measured:
[1] = system: LN-229 glioma flank tumor; assay: In vivo fluorescent imaging of tumor signal in LN-229 flank tumor-bearing nude mice; conditions: for p-value, in vivo tumor ROI mean, ICG vs SBK2-CLE-ICG: ICG 400 nmol/kg vs 300 nmol/kg SBK2-CLE-ICG; for p-value, in vivo tumor ROI mean, ICG vs SBK2-CLE-ICG / p-value, in vivo tumor ROI mean, ICG vs SBK2-ICG / p-value, in vivo tumor ROI mean, ICG vs Scram-CLE-ICG / p-value, in vivo tumor ROI mean, ICG vs Scram-ICG: Welch's t-test; for p-value, in vivo tumor ROI mean, ICG vs SBK2-ICG: ICG 400 nmol/kg vs 300 nmol/kg SBK2-ICG; for p-value, in vivo tumor ROI mean, ICG vs Scram-CLE-ICG: ICG 400 nmol/kg vs 300 nmol/kg Scram-CLE-ICG; for p-value, in vivo tumor ROI mean, ICG vs Scram-ICG: ICG 400 nmol/kg vs 300 nmol/kg Scram-ICG
Text: (§1) All applicable institutional and/or NIH guidelines for the care and use of animals were followed. The Case Western Reserve University Institutional Animal Care and Use Committee reviewed and approved the animal protocols. Outbred homozygous female nude mice (Fox1^nu/Fox1^nu) were purchased from Jackson Laboratory, Bar Harbor, ME, USA. Details of the human glioblastoma LN-229 cell line have been described previously. LN-229 cells express the PTPμ biomarker and have been used in previous studies for evaluating PTPμ-targeted agents using different imaging modalities. Flank tumors were started in the right flank of mice at approximately 7 weeks of age by injecting a mixture of 2×10^6 cells and Matrigel® Matrix (Corning®, Corning Inc., Corning, NY, USA). Experiments were performed in mice 4 to 8 weeks after implanting the tumors.
(§2) The IVIS Spectrum In vivo Imaging System and Living Image analysis software, (Perkin Elmer, Hopkinton, MA, USA) were used for acquisition and analysis of mouse images. Prior to the experiment, mice were weighed, and baseline images acquired using the appropriate filter sets and the autoexposure setting. Three filter sets for excitation/emission were used: 745 nm/800 nm, 745 nm/820 nm, 745 nm/840 nm. The filter set showing highest fluorescence intensity for a fluorophore was used throughout for that dye. For ICG, 745 nm/820 nm was used and for IRDye® 800CW and Tide Fluor™ 8WS, 745 nm/800 nm was used. Agent stocks were diluted in saline or PBS to ˜100 μM and the volume needed for the desired dose of 300 nmol/kg or 400 nmol/kg calculated. Doses were loaded into polyurethane tubing and connected to a 1 mL syringe as previously described. Mice were anesthetized in an induction chamber with 2% isoflurane-oxygen and moved onto a 37° C. heated platform with a nose cone. 26-gauge veterinary catheters were placed in each tail and the preloaded tubing was connected. Agents were injected over 30 sec, catheters were removed, and animals placed in the prepared Spectrum imaging chamber. Images were acquired beginning 10 min after injecting the agents. For SBK2-CCLE-IR800 and Scram-CCLE-IR800, images were acquired every 10 min for 60 min. For the ICG-labeled and TF8WS-labeled peptides, images were acquired at 10 min, 30 min, 1 h, 2 h, 4 h, 8 h, and 24 h. At the end of the imaging time, the animals were euthanized by CO2 asphyxiation, and the tumor and other organs excised and imaged on the Spectrum.
(§3) Living Image analysis software was used for region of interest (ROI) analysis of the optical data. Images acquired for each time point consist of a fluorescent image superimposed on a photographic image. Binning was set to 1 and in vivo tumor ROIs were manually drawn based on contours visible in the black and white photograph for each timepoint. After outlining the tumor ROIs, fluorescence was measured with the built-in Spectrum function. For excised tumors, kidneys, spleen and liver, ROIs were drawn around the perimeter of the tumor or organ.
(§4) LivingImage software measures fluorescence intensity in units of radiant efficiency. For these analyses, average radiant efficiency measurements in (photons/s/cm^2/steradian)/(μW/cm^2) were used for further comparisons to account for differences in tumor and organ size. GraphPad Prism 9 was used for plots and statistical analyses. Where indicated, means for pairs of agents were compared using a two-tailed t-test with Welch's correction and statistical significance was assumed at p<0.05. Welch's correction was used to eliminate assumptions about variance between the groups being compared.

[2] = system: LN-229 glioma flank tumor; assay: Ex vivo fluorescence of excised tumors; assay type: in vivo, mice; conditions: 24 h, ICG-labeled agents 300 nmol/kg, ICG 400 nmol/kg, Welch's t-test
Text: as §1, §2
Living Image analysis software was used for region of interest (ROI) analysis of the optical data. […] After outlining the tumor ROIs, fluorescence was measured with the built-in Spectrum function. […]
LivingImage software measures fluorescence intensity in units of radiant efficiency. […]

[3] = Ex vivo fluorescence in excised kidneys, spleen and liver; parameters: species or system mice
Text: as §2, §3, §4

[4] = Whole-body and ventral fluorescent imaging of biodistribution and clearance; assay type: in vivo, mice; conditions: for clearance via the renal system: mouse, in vivo
Text: as §2

[5] = RP-HPLC and LC-MS/MS of IRDye 800CW-labeled agent stocks warmed to room temperature; assay type: physicochemical; conditions: RP-HPLC
Text: The hydrophilic nature and pH sensitivity of the IRDye® 800CW precluded on-resin coupling in the organic solvents and TFA-based cleavage cocktail used for ICG-labeled molecules. IRDye® 800CW maleimide was conjugated in aqueous solution following the manufacturer's recommended protocol to cysteine residues at the N-termini of the peptides and obtained at >95% purity from PolyPeptide Group. Additional LC-MS/MS analyses using an Orbitrap Elite LC-MS, purchased via an NIH shared instrument grant, 1S10RR031537-01, were performed on these agents by the Lerner Research Institute Proteomics Core at the Cleveland Clinic.
Similar to Tide Fluor™ 8WS, the hydrophilic nature of the IRDye® 800CW results in elution of the SBK2-CCLE-IR800 at around 25 min (FIG. 7). In assessing the IRDye® 800CW-labeled agents by RP-HPLC however, a second peak appeared when the SBK2-CCLE-IR800 and Scrambled-CCLE-IR800 stocks were warmed to room temperature. LC-MS/MS analysis was performed and confirmed the identity of the main peak as belonging the agents with the closed succinimide ring, while the second peak, representing around 30% of the material, and eluting slightly earlier than the main peak was identified as containing an open succinimide ring (FIG. 1).

[6] = Kidney, 24 h, ICG-labeled agents 300 nmol/kg, ICG 400 nmol/kg, Welch's t-test
[7] = Liver, 24 h, ICG-labeled agents 300 nmol/kg, ICG 400 nmol/kg, Welch's t-test
[8] = Spleen, 24 h, ICG-labeled agents 300 nmol/kg, ICG 400 nmol/kg, Welch's t-test

p-value, average radiant efficiency of excised kidney vs SBK2-CLE-ICG [3, 6]: <0.001
p-value, average radiant efficiency of excised kidney vs SBK2-ICG [3, 6]: <0.001
p-value, average radiant efficiency of excised kidney vs Scram-CLE-ICG [3, 6]: 0.008
p-value, average radiant efficiency of excised kidney vs Scram-ICG [3, 6]: 0.003
p-value, average radiant efficiency of excised liver vs SBK2-CLE-ICG [3, 7]: 0.004
p-value, average radiant efficiency of excised liver vs SBK2-ICG [3, 7]: <0.001
p-value, average radiant efficiency of excised liver vs Scram-CLE-ICG [3, 7]: <0.001
p-value, average radiant efficiency of excised liver vs Scram-ICG [3, 7]: 0.013
p-value, average radiant efficiency of excised spleen vs SBK2-CLE-ICG [3, 8]: <0.001
p-value, average radiant efficiency of excised spleen vs SBK2-ICG [3, 8]: <0.001
p-value, average radiant efficiency of excised spleen vs Scram-CLE-ICG [3, 8]: <0.001
p-value, average radiant efficiency of excised spleen vs Scram-ICG [3, 8]: 0.004
clearance compared to ICG-conjugated peptides ([4]; ICG dye 400 nmol/kg): cleared much more rapidly
Compound: CC1(C)C(/C=C/C=C/C=C/C=C2\N(CCCCS(=O)(=O)O)c3ccc4ccccc4c3C2(C)C)=[N+](CCCCS(=O)(=O)[O-])c2ccc3ccccc3c21 [ICG, indocyanine green]
p-value, in vivo tumor ROI mean, ICG vs SBK2-CLE-ICG ([1]; 10 min): <0.001
p-value, in vivo tumor ROI mean, ICG vs SBK2-ICG ([1]; 10 min): <0.001
p-value, in vivo tumor ROI mean, ICG vs Scram-CLE-ICG ([1]; 10 min): <0.001
p-value, in vivo tumor ROI mean, ICG vs Scram-ICG ([1]; 10 min): <0.001
p-value, in vivo tumor ROI mean, ICG vs SBK2-CLE-ICG ([1]; 30 min): <0.001
p-value, in vivo tumor ROI mean, ICG vs SBK2-ICG ([1]; 30 min): <0.001
p-value, in vivo tumor ROI mean, ICG vs Scram-CLE-ICG ([1]; 30 min): <0.001
p-value, in vivo tumor ROI mean, ICG vs Scram-ICG ([1]; 30 min): <0.001
p-value, in vivo tumor ROI mean, ICG vs SBK2-CLE-ICG ([1]; 24 h): <0.001
p-value, in vivo tumor ROI mean, ICG vs SBK2-ICG ([1]; 24 h): <0.001
p-value, in vivo tumor ROI mean, ICG vs Scram-CLE-ICG ([1]; 24 h): ns
p-value, in vivo tumor ROI mean, ICG vs Scram-ICG ([1]; 24 h): <0.001
in vivo tumor fluorescence produced ([1]; ICG dye 400 nmol/kg): very little in vivo tumor fluorescence
time of peak in vivo tumor signal ([1]; ICG dye 400 nmol/kg): ≤ 10 min
p-value, average radiant efficiency of excised tumor vs SBK2-CLE-ICG [2]: 0.003
p-value, average radiant efficiency of excised tumor vs SBK2-ICG [2]: <0.001
p-value, average radiant efficiency of excised tumor vs Scram-CLE-ICG [2]: 0.019
p-value, average radiant efficiency of excised tumor vs Scram-ICG [2]: 0.003

Compound: SBK2-CCLE-IR800: IRDye 800CW maleimide conjugated to N-terminal cysteine of C.GGSGGS.GEGDDFNWEQVNTLTKPTSD (SEQ ID NO: 50) ({C(IRDye 800CW maleimide)}-GGSGGSGEGDDFNWEQVNTLTKPTSD)
difference in in vivo tumor average radiant efficiency vs Scram-CCLE-IR800 ([1]; 400 nmol/kg, every ten minutes for 60 minutes): No significant differences
specific tumor labeling ([1]; 400 nmol/kg, versus Scrambled control agents): no specific tumor labeling
clearance via the renal system [4]: more rapidly than expected
second peak containing an open succinimide ring, share of the material [5]: around 30%

Compound: Scram-CCLE-IR800: IRDye 800CW maleimide conjugated to N-terminal cysteine of C.GGSGGS.GFTQPETGTDNDLWSVDNEK (SEQ ID NO: 51) ({C(IRDye 800CW maleimide)}-GGSGGSGFTQPETGTDNDLWSVDNEK)
difference in liver fluorescence vs SBK2-CCLE-IR800 ([3]; 400 nmol/kg, 60 min, liver): No significant difference
clearance via the renal system [4]: more rapidly than expected
second peak containing an open succinimide ring, share of the material [5]: around 30%

— US20260091143A1, “NEAR-INFRARED IMAGING AGENT AND USES THEREOF” (CASE WESTERN RESERVE UNIVERSITY, priority 2022, published 2026)
